The values that follow come from ChEMBL document CHEMBL1145702, “(+)-Angchibangkine, a new type of bisbenzylisoquinoline alkaloid, and other dimers from Pachygone dasycarpa” (J Nat Prod, 1997).

Converted amounts (≈) assume the structure as drawn.

The subject of one test is KB. Kind of test: Cytotoxicity against human KB cells. The format is functional, cell-based.
The test system of test [1] is Plasmodium falciparum. Kind of test: Antiplasmodial activity against chloroquine-resistant Plasmodium falciparum W2 as [3H]hypoxanthine uptake. The format is functional, organism-based.
Test [2] concerns Plasmodium falciparum. Kind of test: Antiplasmodial activity against chloroquine-sensitive Plasmodium falciparum D6 as [3H]hypoxanthine uptake. It counts as functional, organism-based.

For `COc1ccc2cc1Oc1ccc(cc1)C[C@H]1c3c(cc(O)c4c3Oc3cc5c(cc3O4)CCN(C)[C@H]5C2)CCN1C`, the half-inhibitory concentration (IC50) (as a rule, the midpoint of a concentration-inhibition curve) was found to be 3.4 µg/mL (≈ 6.04 µM) with KB, 0.063 µg/mL (≈ 0.112 µM) in the test with Plasmodium falciparum [1] and 0.0171 µg/mL (≈ 0.0304 µM) in the test with Plasmodium falciparum [2].
Consider `COc1ccc2cc1Oc1ccc(cc1)C[C@H]1c3cc4c(cc3CCN1C)Oc1c(OC)cc3c(c1O4)[C@H](C2)N(C)CC3`, for which the IC50 was 5.9 µg/mL (≈ 10.2 µM) in the test on KB, 0.204 µg/mL (≈ 0.354 µM) with Plasmodium falciparum [1] and 0.326 µg/mL (≈ 0.565 µM) in the test with Plasmodium falciparum [2].
For `COc1cc2c3c4c1Oc1cc5c(cc1O4)[C@H](Cc1ccc(cc1)Oc1cc(ccc1O)C[C@@H]3N(C)CC2)N(C)CC5` the same measures were 12 µg/mL (≈ 21.3 µM), 0.265 µg/mL (≈ 0.471 µM) and 0.306 µg/mL (≈ 0.544 µM).
